Results on five compounds are retold here after patent publication US8815903B2, “Indole derivative and pharmacologically acceptable salt thereof” (Kissei Pharmaceutical Co., Ltd., priority 2011, dated 2014).

For orientation: IC50 means the midpoint of a concentration-inhibition curve.

One assay concerns the target T1, rat EP1 receptor (Rattus norvegicus, UniProt P70597).
T1 construct: expressed in transfected cells
T1 sequence (P70597 1-405): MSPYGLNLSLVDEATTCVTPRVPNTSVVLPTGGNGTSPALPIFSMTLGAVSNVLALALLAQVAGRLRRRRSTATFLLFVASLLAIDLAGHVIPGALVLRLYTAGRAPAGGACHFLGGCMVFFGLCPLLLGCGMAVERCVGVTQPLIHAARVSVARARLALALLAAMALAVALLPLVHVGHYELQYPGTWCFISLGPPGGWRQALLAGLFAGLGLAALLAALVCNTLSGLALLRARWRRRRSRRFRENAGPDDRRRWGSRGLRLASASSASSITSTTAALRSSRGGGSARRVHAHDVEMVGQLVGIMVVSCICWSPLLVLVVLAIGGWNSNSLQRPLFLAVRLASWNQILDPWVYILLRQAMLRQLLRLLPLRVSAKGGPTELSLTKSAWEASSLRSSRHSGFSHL
In words: Test for confirmation of EP1 receptor antagonism (inhibition of PGE2-induced increase in intracellular calcium concentration). It is filed as cell-based. Conditions: rat EP1 receptor-expressing COS-1 cells; prostaglandin E2 10 nM; fluorescent calcium indicator, FDSS 7000. The procedure, abridged: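 COS-1 cells seeded at 5×10^4 cells/well in D-MEM with 10% fetal calf serum, then transiently transfected about 2 h later with a rat EP1 expression vector (200 ng/well) via Lipofectamine 2000. Antagonism measured as inhibition of PGE2-induced rise in intracellular calcium.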
Background: Calcium flux is commonly read through the fluorescence of an indicator in the cells.

The subject of assay [1] is Sulprostone-Induced Bladder Contraction. As to the kind of experiment: Inhibitory effect of compound on sulprostone-induced bladder contraction. It counts as in vivo, rat. Conditions: female SD rats, urethane anesthesia, sulprostone 0.3 mg/kg s.c., test agent 1.0 mg/kg intravenously; for Bladder Contraction Inhibition Rate 15 minutes: 15 minutes from administration; for Bladder Contraction Inhibition Rate 60 minutes: 60 minutes from administration. An excerpt: Inhibitory Effect of Compound on Sulprostone-Induced Bladder Contraction
Female SD rats were used. Under urethane anesthesia (1.25 g/kg, administered subcutaneously), a tracheal cannula (Size 8, HIBIKI) and a femoral vein cannula for administration (23 G needle-equipped PESO) were inserted thereinto. The bladder cannula (PESO) was inserted from the bladder apex. The bladder cannula was connected to a three-way stopcock, and then, one was connected to a pressure transducer and the other was connected to a syringe filled with saline. Saline was injected to the bladder at an injection rate of 3.6 mL/hour and the bladder contraction pressure was recorded at the time of injection with a recorder (RECTI-HORITZ-8K, NEC Corporation). After 10 minutes from stabilization of the bladder contraction pressure during urination, sulprostone was administered subcutaneously (0.3 mg/kg). Then, at the time point when the bladder contraction pressure became constant, a test agent was administered intravenously (1.0 mg/kg). An average bladder contraction pressure during the 10 minute period before administration of sulprostone was taken as a baseline (0%). Further, an average bladder contraction pressure during the 10 minute period directly before administration of the test agent was taken as a maximum bladder contraction pressure (100%). The average bladder contraction pressures were measured during 5 minutes before and after at 15 minutes and 60 minutes from administration of the test agent. The ratio of this measured value to the maximum bladder contraction pressure was calculated by the following equation and taken as an average bladder contraction rate after administration of the test agent: (Average Bladder Contraction Rate after Administration of Test Agent (%))=[(Average Bladder Contraction Pressure after Administration of Test Agent)/(Maximum Bladder Contraction Pressure)]×100 EQUATION 1
In addition, the difference between the maximum bladder contraction rate (100%) and the average bladder contraction rate (%) after administration of the test agent was calculated by the following equation and taken as a bladder contraction inhibition rate of the test agent: (Bladder Contraction Inhibition Rate)=100%−(Average Bladder Contraction Rate after Administration of Test Agent (%)) EQUATION 2

As for `COc1cc2[nH]c(-c3ccccc3)c(Cc3cccc(C(=O)NS(C)(=O)=O)n3)c2cc1F` [Example 3-9, 6-(5-fluoro-6-methoxy-2-phenyl-1H-indol-3-ylmethyl)-N-methanesulfonylpyridine-2-carboxamide], at rat EP1 receptor, the half-maximal inhibitory concentration (IC50) was determined as 25 nM. In addition, in assay [1], the “Bladder Contraction Inhibition Rate 15 minutes” value was 76.4% and the “Bladder Contraction Inhibition Rate 60 minutes” value is given as 78.9%.

Consider `COc1ccc2c(Cc3cccc(C(=O)NC#N)n3)c(-c3ccccc3)[nH]c2c1` [Example 10, N-Cyano-6-(6-methoxy-2-phenyl-1H-indol-3-ylmethyl)pyridine-2-carboxamide], for which the IC50 at rat EP1 receptor was 26 nM. In assay [1], the “Bladder Contraction Inhibition Rate 15 minutes” value is 82.9% and the “Bladder Contraction Inhibition Rate 60 minutes” value stood at 90.7%.

Regarding `COc1ccc2c(Cc3cccc(-c4nnn[nH]4)n3)c(C3(C)CC3)[nH]c2c1` [Example 17-11, 6-methoxy-2-(1-methylcyclopropyl)-3-[6-(1H-tetrazol-5-yl)pyridin-2-ylmethyl]-1H-indole], the IC50 on rat EP1 receptor is 11 nM. Also, in assay [1], the “Bladder Contraction Inhibition Rate 15 minutes” value stood at 92.8% and the “Bladder Contraction Inhibition Rate 60 minutes” value came out at 100.9%.

As for `Cc1ccc2c(Cc3cccc(-c4nnn[nH]4)n3)c(C3(C)CC3)[nH]c2c1` [Example 17-12, 6-methyl-2-(1-methylcyclopropyl)-3-[6-(1H-tetrazol-5-yl)pyridin-2-ylmethyl]-1H-indole], the IC50 on rat EP1 receptor was 14 nM. In addition, in assay [1], the “Bladder Contraction Inhibition Rate 15 minutes” value was 81.9% and the “Bladder Contraction Inhibition Rate 60 minutes” value is reported as 74.7%.

For the compound `COc1ccc2c(Cc3cccc(-c4nnn[nH]4)n3)c(C(C)(C)C)[nH]c2c1` [Example 5-7, 2-tert-butyl-6-methoxy-3-[6-(1H-tetrazol-5-yl)pyridin-2-ylmethyl]-1H-indole], the half-inhibitory concentration (IC50) at rat EP1 receptor turned out to be 20 nM. Further, in assay [1], the “Bladder Contraction Inhibition Rate 15 minutes” value is reported as 74.8% and the “Bladder Contraction Inhibition Rate 60 minutes” value was determined as 71.0%.
